System: 138582-337-R-J1-PDC complex spheroid viability
Assay: Anticancer human tumor 138582-337-R-J1-PDC patient-derived Merkel cell tumor cell line growth inhibition
Conditions: for IC50: curve of first compound; for viability, T/C: stronger effect = lower value
Summary of the method: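 Drug combinations with the LSD1 inhibitor iadademstat tested on tumor cells co-cultured as spheroids with endothelial cells and mesenchymal stem cells. Concentrations descended in half-log increments from clinical Cmax or 10 microM.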

[1] = second compound 0.1 µM, first compound 0.00949 µM
[2] = second compound 0.1 µM, first compound 0.03 µM
[3] = second compound 0.1 µM, first compound 0.0949 µM
[4] = second compound 0.1 µM, first compound 0.3 µM
[5] = second compound 0.316 µM, first compound 0.00949 µM
[6] = second compound 0.316 µM, first compound 0.03 µM
[7] = second compound 0.316 µM, first compound 0.0949 µM
[8] = second compound 0.316 µM, first compound 0.3 µM
[9] = second compound 1 µM, first compound 0.00949 µM
[10] = second compound 1 µM, first compound 0.03 µM
[11] = second compound 1 µM, first compound 0.0949 µM
[12] = second compound 1 µM, first compound 0.3 µM
[13] = second compound 3.16 µM, first compound 0.00949 µM
[14] = second compound 3.16 µM, first compound 0.03 µM
[15] = second compound 3.16 µM, first compound 0.0949 µM
[16] = second compound 3.16 µM, first compound 0.3 µM
[17] = second compound 10 µM, first compound 0.00949 µM
[18] = second compound 10 µM, first compound 0.03 µM
[19] = second compound 10 µM, first compound 0.0949 µM
[20] = second compound 10 µM, first compound 0.3 µM
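Note: spheroids exposed to agents for 7 days.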
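Throughout, for viability, T/C: 100% = DMSO vehicle control viability.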

SMILES	IC50 (second compound 0.1 µM)	IC50 (second compound 0.316 µM)	IC50 (second compound 1 µM)	IC50 (second compound 3.16 µM)	IC50 (second compound 10 µM)	viability, T/C [1]	viability, T/C [2]	viability, T/C [3]	viability, T/C [4]	viability, T/C [5]	viability, T/C [6]	viability, T/C [7]	viability, T/C [8]	viability, T/C [9]	viability, T/C [10]	viability, T/C [11]	viability, T/C [12]	viability, T/C [13]	viability, T/C [14]	viability, T/C [15]	also measured
CCN(c1cc(-c2ccc(CN3CCOCC3)cc2)cc(C(=O)NCc2c(C)cc(C)[nH]c2=O)c1C)C1CCOCC1 + NC1CCC(NC2CC2c2ccccc2)CC1	> 3000 nM	> 3000 nM	> 3000 nM	> 3000 nM	> 3000 nM	101%	87.9%	109%	92.4%	101%	101%	91%	95.3%	98.6%	106%	98.2%	90.3%	99.2%	103%	90.6%	viability, T/C (second compound 0.1 µM, first compound 0.949 µM): 106%; viability, T/C (second compound 0.1 µM, first compound 3 µM): 111%; viability, T/C (second compound 0.316 µM, first compound 0.949 µM): 124%; viability, T/C (second compound 0.316 µM, first compound 3 µM): 105%; viability, T/C (second compound 1 µM, first compound 0.949 µM): 97.7%; viability, T/C (second compound 1 µM, first compound 3 µM): 103%; viability, T/C [16]: 92.3%; viability, T/C (second compound 3.16 µM, first compound 0.949 µM): 110%; viability, T/C (second compound 3.16 µM, first compound 3 µM): 105%; viability, T/C [17]: 88.9%; viability, T/C [18]: 86.7%; viability, T/C [19]: 82.2%; viability, T/C [20]: 90.9%; viability, T/C (second compound 10 µM, first compound 0.949 µM): 84.9%; viability, T/C (second compound 10 µM, first compound 3 µM): 84.8%
Nc1ncn(C2CC(O)C(CO)S2)c(=O)n1 (stereo not given) + NC1CCC(NC2CC2c2ccccc2)CC1	> 300 nM	> 300 nM	> 300 nM	> 300 nM	> 300 nM	101%	102%	106%	93.5%	96.4%	95.4%	94.5%	108%	107%	87.8%	81%	100%	88%	78.4%	93.5%	viability, T/C (second compound 0.1 µM, first compound 0.000949 µM): 98.9%; viability, T/C (second compound 0.1 µM, first compound 0.003 µM): 105%; viability, T/C (second compound 0.316 µM, first compound 0.000949 µM): 95%; viability, T/C (second compound 0.316 µM, first compound 0.003 µM): 93.9%; viability, T/C (second compound 1 µM, first compound 0.000949 µM): 90.9%; viability, T/C (second compound 1 µM, first compound 0.003 µM): 103%; viability, T/C (second compound 3.16 µM, first compound 0.000949 µM): 89.2%; viability, T/C (second compound 3.16 µM, first compound 0.003 µM): 96%; viability, T/C [16]: 84.7%; viability, T/C (second compound 10 µM, first compound 0.000949 µM): 80.1%; viability, T/C (second compound 10 µM, first compound 0.003 µM): 80.4%; viability, T/C [17]: 91.4%; viability, T/C [18]: 87.5%; viability, T/C [19]: 78.6%; viability, T/C [20]: 85%

From PubChem BioAssay AID1918931 (Molecular Pharmacology Branch, DTP, NCI, 2023)
